Where two headings read alike, the source gives them in different places.
Experiments:
mouse cochlear explants = assay: tissue or blood; details: for IC50: Mus musculus; for protection against cisplatin-induced hair cell loss/death in mouse cochlear explants (in words): cisplatin 150 μM
Method: Dab alone or Dab added 1 h before cisplatin (150 μM) to P3 FVB cochlear explants for 24 h.
Now referring to FIG. 9, testing of a B-Raf/MEK1/2 inhibitor combination in mouse cochlear explant cultures. Compounds alone or combination of the compounds were added 1 h before cisplatin (150 μM) to P3 FVB cochlear explants for 24 h, and number of outer hair cells per 160 μm of middle turn regions of the cochlea were counted by phalloidin staining, mean±SEM, P=*<0.05, P=***<0.001, compared to cisplatin alone by unpaired two-tailed Student's t-test.
Methods of using a zebrafish model system to evaluate small molecules capable of decreasing, inhibiting or preventing sensory hair cell damage or death are provided. Zebrafish are an advantageous animal model system for studying causes and prevention of hearing loss in comparison to mammalian animal model systems. The relative inaccessibility of hair cells in mammalian organisms limits their use as a high throughput model for identifying compounds that would prevent toxin mediated and other forms of hair cell death from occurring. The lateral line neuromast hair cells of zebrafish (Danio rerio) are structurally and functionally similar to mammalian sensory hair cells. […] Compounds alone or compounds added 1 h before cisplatin (150 μM) to P3 FVB cochlear explants for 24 h, and number of outer hair cells per 160 μm of middle turn regions of the cochlea were counted by phalloidin staining, mean±SEM, P=*<0.05, P=**<0.005, ***P<0.0005 compared to cisplatin alone by unpaired two-tailed Student's t-test.
Compounds alone (purple bar) or combination of the compounds were added 1 h before cisplatin (150 μM) to P3 FVB cochlear explants for 24 hrs, and number of outer hair cells per 160 μm of middle turn regions of the cochlea were counted by phalloidin staining, mean±SEM, P=*<0.05, P=**<0.005, compared to cisplatin alone by unpaired two-tailed Student's t-test.

B-RAF, ERK and MEK = assay: Western blots of cisplatin activated B-Raf signaling cascade in HEI-OC1 cells; type: cell-based, mouse; details: 50 μM cisplatin, 1 hour; dose dependent
Description: Western blots show representative changes of each signaling molecule upon cisplatin and Dab treatment at specific doses (5B) and times (5A).

HEI-OC1 cells [1] = assay: Protection against cisplatin-induced Caspase-3/7 activity in HEI-OC1 cells (Caspase-Glo 3/7); type: cell-based, mouse; details: for IC50: Mus musculus, HEI-OC1; for protection against cisplatin-induced cell death in HEI-OC1 (in words): kinase inhibitor library screen
Method: A screen of a library composed of 75 kinase inhibitors was conducted to identify inhibitors that protect against cisplatin-induced hair cell loss.

[2] = system: zebrafish lateral line neuromast hair cells; assay: Protection of zebrafish lateral line neuromast hair cells in vivo against cisplatin; design: species or system zebrafish (Danio rerio)
Method: Lateral line neuromasts of zebrafish were stained and number of hair cells per neuromast were counted. Cisplatin (CP): 400 μM. *, **, and ***: P<0.05, 0.01, and 0.001 compared to CP alone.
Protection of zebrafish lateral line neuromast hair cells in vivo. […] After the treatment, animals were transferred to fresh fish water to recover for 1 hour and then fixed and immunostained for GFP and otoferlin. Quantification of the number of hair cells per neuromast after the different treatments represented as mean+/−SEM. Student's t test was performed, *p<0.05, **p<0.01, ***p<0.001, compared versus CP 400 μM. Neuromasts inspected: SO3 (supraorbital line neuromast) and O1-2 (otic line neuromasts) from at least 3 different animals.

HEI-OC1 cells [3] = details: CELLTITER-GLO
[4] = read-out: IC50, protection against cisplatin-induced hair cell loss in mouse cochlear explants
[5] = Table 1, read-out: HEI-OC1 cell line IC50
[6] = read-out: Mouse cochlear explant IC50

| SMILES | IC50 (mouse cochlear explants; [4]) [µM] | protection against cisplatin-induced hair cell loss/death in mouse cochlear explants (in words) (mouse cochlear explants) | IC50 (HEI-OC1 cells [1]; [5]) [µM] | protection against cisplatin-induced cell death in HEI-OC1 (in words) (HEI-OC1 cells [1]) | LD50 in mouse cochlear explants (mouse cochlear explants; FVB, mouse, 24 h) | IC50 (mouse cochlear explants; [6]) [µM] | further results |
| --- | --- | --- | --- | --- | --- | --- | --- |
| CC(=O)Nc1cccc(-n2c(=O)n(C3CC3)c(=O)c3c(Nc4ccc(I)cc4F)n(C)c(=O)c(C)c32)c1 [Trametinib] | 0.05 | – | – | – | – | – | LD50 in mouse cochlear explants (mouse cochlear explants): greater than 3 μM |
| CCCS(=O)(=O)Nc1ccc(F)c(C(=O)c2c[nH]c3ncc(Cl)cc23)c1F [PLX-4750] | 0.2 | protected | – | – | – | – | – |
| CC(C)(C)c1nc(-c2cccc(NS(=O)(=O)c3c(F)cccc3F)c2F)c(-c2ccnc(N)n2)s1 [Dabrafenib] | 0.03 | potently protected | 13.5 | potently protected | 13.47 µM | 0.03 | effect on cisplatin-mediated activation of B-RAF, ERK and MEK (in words) (B-RAF, ERK and MEK): mitigates; Zebrafish cisplatin protection at concentration ([2]; FIG. 11A): 0.100 µM; Zebrafish protection ([2]; Table 1, protective concentration, cisplatin 400 μM): 0.100 µM |
| FC(F)(F)c1ccc(/C=C/c2nc(COc3ccc(CCCCn4ccnn4)cc3)co2)cc1 [Mubritinib] | 0.0025 | potently protected | 0.039 | potently protected | – | 0.002 | LD50 in HEI-OC1 cells (HEI-OC1 cells [3]): > 55 µM; IC50 (HEI-OC1 cells [1]; read-out: IC50, protection against cisplatin-induced Caspase-3/7 activity in HEI-OC1 cells): 0.004 µM; LD50 in mouse cochlear explants (mouse cochlear explants; FVB, mouse): > 0.5 µM |
| Cn1c(Nc2ccc(C(F)(F)F)cc2)nc2cc(Oc3ccnc(-c4ncc(C(F)(F)F)[nH]4)c3)ccc21 [RAF-265] | 0.02 | protected | – | – | greater than 3 μM | – | – |
| CCOc1cc2ncc(C#N)c(Nc3ccc(F)c(Cl)c3)c2cc1NC(=O)/C=C/CN(C)C [Pelitinib] | – | – | – | – | – | – | IC50 (HEI-OC1 cells [1]; cisplatin-Caspase-Glo 3/7, read-out: IC50, protection against cisplatin-induced Caspase-3/7 activity in HEI-OC1 cells): 0.6 µM; protection of outer hair cells against cisplatin-induced hair cell loss in mouse cochlear explants (mouse cochlear explants; 1 hour pre-incubation, N=3): 49% |
| CC1(COc2ccc3c(c2)ncn3-c2ccc3cccc(N4CCC(N)CC4)c3n2)COC1 [Crenolanib] | – | – | 2.4 | potently protected | – | 0.35 | protection against cisplatin-induced hair cell loss/death in mouse cochlear explants (in words) (mouse cochlear explants; listed as CRENOLANIB): potently protected; protection against cisplatin-induced hair cell loss/death in mouse cochlear explants (in words) (mouse cochlear explants; listed as crenolanib): protected |
| O=C(Nc1cccc(Cl)c1)Nc1ncc(CCNc2ncnc3ccsc23)s1 [SNS-314] | – | protected | 7.49 | potently protected | – | 0.05 | protection against cisplatin-induced hair cell loss/death in mouse cochlear explants (in words) (mouse cochlear explants; listed as SNS314): potently protected |
| CCCS(=O)(=O)Nc1ccc(F)c(C(=O)c2c[nH]c3ncc(-c4ccc(Cl)cc4)cc23)c1F [Vemurafenib] | ~0.2 | – | – | – | greater than 3 μM | – | – |
